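Briefly, cells in 96-well plates were exposed to five compound concentrations for 48 h, and endpoints were estimated by linear interpolation. GI50 is the concentration that inhibits growth by half.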 Calls of active or inactive are those of the source. No stated cut-off is given here; in the data, active = GI50 up to about 1.1 µM and inactive = higher.
Tests used:
Assay in all cases: NCI anticancer screen, dose series, 48 h
[1] = tested on: SR
[2] = tested on: HCT-15
[3] = tested on: U-251
[4] = tested on: SK-MEL-28
[5] = tested on: LOX IMVI
[6] = tested on: SF-539
[7] = tested on: 786-0
[8] = tested on: SNB-75
[9] = tested on: MDA-MB-231
[10] = tested on: SK-MEL-5
[11] = tested on: HCC 2998
[12] = tested on: MOLT-4
[13] = tested on: HL-60
[14] = tested on: KM12
[15] = tested on: EKVX
[16] = tested on: UO-31
[17] = tested on: UACC-62
[18] = tested on: SK-OV-3

| Structure (SMILES) | GI50 [1] | GI50 [2] [µM] | GI50 [3] | GI50 [4] | GI50 [5] | GI50 [6] | GI50 [7] | GI50 [8] | GI50 [9] | GI50 [10] | GI50 [11] | GI50 [12] | GI50 [13] | GI50 [14] | GI50 [15] | GI50 [16] | GI50 [17] | GI50 [18] |
| --- | --- | --- | --- | --- | --- | --- | --- | --- | --- | --- | --- | --- | --- | --- | --- | --- | --- | --- |
| CC1(C)OCC(COC(=O)NCn2cc(-c3ccccc3)nn2)O1 (stereo unspecified) | > 100 µM (inactive) | > 100 | > 100 µM (inactive) | > 100 µM (inactive) | > 100 µM (inactive) | > 100 µM (inactive) | > 100 µM (inactive) | > 100 µM (inactive) | > 100 µM (inactive) | > 100 µM (inactive) | 26.2 µM (inactive) | > 100 µM (inactive) | > 100 µM (inactive) | > 100 µM (inactive) | > 100 µM (inactive) |  |  |  |
| CN(C)/C(=N\C#N)NCc1ccccc1 |  | > 100 | > 100 µM (inactive) | > 100 µM (inactive) | > 100 µM (inactive) | > 100 µM (inactive) | > 100 µM (inactive) |  |  | > 100 µM (inactive) | > 100 µM (inactive) |  |  | > 100 µM (inactive) | > 100 µM (inactive) | > 100 µM (inactive) | > 100 µM (inactive) | > 100 µM (inactive) |
| O=c1[nH]c(=O)n(C2CC(O)C(O)C(CO)O2)cc1F (stereo unspecified) |  | > 100 | > 100 µM (inactive) | > 100 µM (inactive) | > 100 µM (inactive) | > 100 µM (inactive) | > 100 µM (inactive) | > 100 µM (inactive) |  |  | > 100 µM (inactive) | > 100 µM (inactive) | > 100 µM (inactive) | > 100 µM (inactive) | > 100 µM (inactive) | > 100 µM (inactive) | > 100 µM (inactive) | > 100 µM (inactive) |
| O=C(O)c1ccccc1NC(=O)C1CCCCC1 |  | > 100 | > 100 µM (inactive) | > 100 µM (inactive) | > 100 µM (inactive) | > 100 µM (inactive) | > 100 µM (inactive) | > 100 µM (inactive) |  | > 100 µM (inactive) | > 100 µM (inactive) | > 100 µM (inactive) | > 100 µM (inactive) | > 100 µM (inactive) | > 100 µM (inactive) | > 100 µM (inactive) | > 100 µM (inactive) | > 100 µM (inactive) |
| COC(=O)/C(=N\NC(=O)C[N+](C)(C)C)C(C(=O)OC)C(=O)C(=O)Nc1ccccc1C(N)=O (stereo unspecified) | > 100 µM (inactive) | > 100 | > 100 µM (inactive) | > 100 µM (inactive) | > 100 µM (inactive) | > 100 µM (inactive) | > 100 µM (inactive) | > 100 µM (inactive) |  | > 100 µM (inactive) | > 100 µM (inactive) | > 100 µM (inactive) | > 100 µM (inactive) | > 100 µM (inactive) | > 100 µM (inactive) | > 100 µM (inactive) | > 100 µM (inactive) | > 100 µM (inactive) |
| Cn1ccnc1CCc1ccc(Cl)c(Cl)c1 | > 100 µM (inactive) | > 100 | > 100 µM (inactive) | > 100 µM (inactive) | > 100 µM (inactive) | > 100 µM (inactive) | > 100 µM (inactive) | 37.3 µM (inactive) |  | 37.5 µM (inactive) |  | > 100 µM (inactive) | 69 µM (inactive) | > 100 µM (inactive) |  | 50.5 µM (inactive) | > 100 µM (inactive) | > 100 µM (inactive) |
| C1=C2/CC[C@H](Sc3ccccc3)C2C2(CCCCC/1)OCCO2 (stereo partly specified) | 10.7 µM (inactive) |  | 29.3 µM (inactive) | 30.2 µM (inactive) | 15.2 µM (inactive) | 41.8 µM (inactive) | 42.4 µM (inactive) | 23.9 µM (inactive) |  |  | 23.5 µM (inactive) | 16.6 µM (inactive) | 8.41 µM (inactive) | 26.5 µM (inactive) | 32.9 µM (inactive) |  | 16.5 µM (inactive) |  |
| CCN(CC)CCSc1c2ccccc2nc2cc(NCC(=O)Nc3ccccc3-c3ccccc3NC(=O)CNc3ccc4c(SCCN(CC)CC)c5ccccc5nc4c3)ccc12 | 34.1 µM (inactive) | > 100 | > 100 µM (inactive) | > 100 µM (inactive) | > 76.6 µM (inactive) | > 100 µM (inactive) | > 92.9 µM (inactive) | > 77.4 µM (inactive) |  | > 100 µM (inactive) | > 100 µM (inactive) | 23.2 µM (inactive) | 20.3 µM (inactive) | > 74.8 µM (inactive) | > 100 µM (inactive) | > 100 µM (inactive) | > 100 µM (inactive) | > 100 µM (inactive) |
| CN[C@@H](C)[C@H](NC)c1ccccc1 |  | 33.3 | > 100 µM (inactive) | > 100 µM (inactive) | > 100 µM (inactive) | > 100 µM (inactive) | > 100 µM (inactive) | > 100 µM (inactive) |  | > 100 µM (inactive) | > 100 µM (inactive) | > 100 µM (inactive) | > 100 µM (inactive) | > 100 µM (inactive) | > 100 µM (inactive) | > 100 µM (inactive) | > 100 µM (inactive) | > 100 µM (inactive) |
| CCCCCCCCCCCC(=O)OC(COC(N)=O)COc1ccc(Cl)cc1 (stereo unspecified) |  | 28 | 25.8 µM (inactive) | 20.3 µM (inactive) | 23.2 µM (inactive) | 18.8 µM (inactive) | 35.8 µM (inactive) | 33.4 µM (inactive) |  | 17.6 µM (inactive) | 30.5 µM (inactive) | 23.7 µM (inactive) | 15.3 µM (inactive) | 25.8 µM (inactive) | 30.1 µM (inactive) | 32.9 µM (inactive) | 19.5 µM (inactive) | > 100 µM (inactive) |
| CCCCn1/c(=N/C(=S)N(C)C)ss/c1=N\C(=S)N(C)C | > 100 µM (inactive) | > 100 | > 100 µM (inactive) | > 100 µM (inactive) | > 100 µM (inactive) | > 100 µM (inactive) | > 100 µM (inactive) | > 100 µM (inactive) |  |  | > 100 µM (inactive) | > 100 µM (inactive) | > 100 µM (inactive) | > 100 µM (inactive) | > 100 µM (inactive) | > 100 µM (inactive) | > 100 µM (inactive) | > 100 µM (inactive) |
| O=C(CCC1C(=O)NC(=S)NC1=O)c1ccc2ccccc2c1 | > 100 µM (inactive) | > 100 | > 100 µM (inactive) | > 100 µM (inactive) | > 100 µM (inactive) | > 100 µM (inactive) | > 100 µM (inactive) | > 100 µM (inactive) |  | > 100 µM (inactive) | > 100 µM (inactive) | > 100 µM (inactive) | > 100 µM (inactive) | > 100 µM (inactive) | > 100 µM (inactive) | > 100 µM (inactive) | > 100 µM (inactive) | > 100 µM (inactive) |
| CC(=O)NC1C(=O)CC(c2ccccc2)N(C)C1c1ccccc1 (stereo unspecified) | > 100 µM (inactive) | > 100 | > 100 µM (inactive) | > 100 µM (inactive) | 6.17 µM (inactive) | > 100 µM (inactive) | > 100 µM (inactive) | > 100 µM (inactive) |  | > 100 µM (inactive) | > 100 µM (inactive) | > 100 µM (inactive) | > 100 µM (inactive) | > 100 µM (inactive) | > 100 µM (inactive) | 94.8 µM (inactive) | > 100 µM (inactive) | 26.3 µM (inactive) |
| CCCCCCCCCCCC(=O)OCC1OC(n2cc(F)c(=O)[nH]c2=O)C(NC(=O)OCc2ccccc2)C(OC(=O)CCCCCCCCCCC)C1O (stereo unspecified) | > 100 µM (inactive) | > 100 | > 100 µM (inactive) | > 100 µM (inactive) | > 100 µM (inactive) | > 100 µM (inactive) | > 100 µM (inactive) | > 100 µM (inactive) |  | > 100 µM (inactive) | > 100 µM (inactive) | > 100 µM (inactive) |  | > 100 µM (inactive) | > 100 µM (inactive) | > 100 µM (inactive) | > 100 µM (inactive) | > 100 µM (inactive) |
| CC12CCC3(C1)[C@H](CC2=O)C[C@@H](OC(=O)c1ccccc1)C1C(C)(CO)CCC[C@@]13C (stereo partly specified) |  | 1.5 | 2.38 µM (inactive) | 13.3 µM (inactive) | 2.17 µM (inactive) | 6.08 µM (inactive) | 1.82 µM (inactive) | 9.14 µM (inactive) |  | < 0.01 µM (active) | 1.97 µM (inactive) | 1.54 µM (inactive) | 0.327 µM (active) | 2.9 µM (inactive) | 3.96 µM (inactive) | 4.15 µM (inactive) | 0.0288 µM (active) | 17.1 µM (inactive) |
| COc1ccc(NC(=O)C(=O)Cc2nc3ccc([N+](=O)[O-])cc3nc2O)c(OC)c1 |  | > 100 |  | > 100 µM (inactive) | 87.9 µM (inactive) | > 100 µM (inactive) | > 100 µM (inactive) | > 100 µM (inactive) |  | > 100 µM (inactive) | > 100 µM (inactive) | > 100 µM (inactive) | > 100 µM (inactive) | > 100 µM (inactive) | > 100 µM (inactive) | > 100 µM (inactive) | > 100 µM (inactive) | > 100 µM (inactive) |
| CN(C)c1ccc(/C=C2\CNC/C(=C\c3ccc(N(C)C)cc3)C2=O)cc1 | 8.81 µM (inactive) | 4.46 | 14.4 µM (inactive) | 22.8 µM (inactive) | 18.8 µM (inactive) | 59.2 µM (inactive) | 16.8 µM (inactive) | 11.1 µM (inactive) |  | 65.5 µM (inactive) | 29.3 µM (inactive) | 24.2 µM (inactive) |  | > 10 µM (inactive) | > 100 µM (inactive) | 36.2 µM (inactive) | 34.5 µM (inactive) | > 100 µM (inactive) |

From ChEMBL document CHEMBL1201862, “PubChem BioAssay data set” (2004)
